{"source": "patent US8815535B2", "about": "“Disk diffusion assay for oritavancin” (The Medicines Company, priority 2011, dated 2014)", "key": {"MSSA U933236": {"system": "MSSA U933236", "test": "Disk diffusion assay (zone of inhibition)", "type": "cell-based, Staphylococcus aureus", "conditions": "20 μl of 1.25 mg/ml in 4% P80/Span 80 (1:1), calcium alginate swabs, dried overnight, duplicate", "procedure": "(§1) Oritavancin powder was dissolved in freshly-prepared solutions of the indicated excipients at concentrations of 0.625, 1.25, 2.5, 5, and 10 mg/ml (adjusted for potency based on lot 875561L00 purity of 83.1%) by vortexing for a minimum of 5 minutes. Oritavancin solutions in the various excipients, while not visually clear, were free from any apparent particulates as assessed visually. Sterile Oxoid blank disks were impregnated with 20 μl of these oritavancin solutions, resulting in oritavancin disk loads ranging from 12.5 to 200 μg. Unless indicated otherwise, disks were allowed to dry overnight at room temperature prior to use.\n(§2) Bacterial suspensions from isolated colonies on overnight cation-adjusted Mueller Hinton agar plates were prepared in sterile saline and adjusted to an optical density of 0.1 at 600 nm Standard cation-adjusted Mueller Hinton agar plates (90 mm diameter) were seeded with bacterial suspensions by initially swabbing the center of plate then moving outward. Swabbing was continued at a right angle and then at an oblique angle to the first and second swabs. Disks were placed upon the seeded plates with sterile forceps. Plates were then incubated overnight at 37° C. and inhibition zone diameters were measured with a ruler and reported in millimeters."}, "MRSA Q670505": {"system": "MRSA Q670505", "test": "Disk diffusion assay (zone of inhibition)", "type": "cell-based, Staphylococcus aureus", "conditions": "20 μl of 1.25 mg/ml in 4% P80/Span 80 (1:1), calcium alginate swabs, dried overnight, duplicate", "procedure": "as §1, §2"}, "hVISA NRS36": {"system": "hVISA NRS36", "test": "Disk diffusion assay (zone of inhibition)", "type": "cell-based, Staphylococcus aureus", "conditions": "25 μg (1.25 mg/ml) in 4% P80/Span 80 (1:1), dried overnight", "procedure": "as §1, §2"}, "MSSA T811355": {"system": "MSSA T811355", "test": "Disk diffusion assay (zone of inhibition)", "type": "cell-based, Staphylococcus aureus", "conditions": "20 μl of 1.25 mg/ml in 4% P80/Span 80 (1:1), calcium alginate swabs, dried overnight, duplicate", "procedure": "as §1, §2"}, "MRSA U933237": {"system": "MRSA U933237", "test": "Disk diffusion assay (zone of inhibition)", "type": "cell-based, Staphylococcus aureus", "conditions": "20 μl of 1.25 mg/ml in 4% P80/Span 80 (1:1), calcium alginate swabs, dried overnight, duplicate", "procedure": "as §1, §2"}, "MSSA U781969": {"system": "MSSA U781969", "test": "Disk diffusion assay (zone of inhibition)", "type": "cell-based, Staphylococcus aureus", "conditions": "20 μl of 1.25 mg/ml in 4% P80/Span 80 (1:1), calcium alginate swabs, dried overnight, duplicate", "procedure": "as §1, §2"}, "MRSA Q141067": {"system": "MRSA Q141067", "test": "Disk diffusion assay (zone of inhibition)", "type": "cell-based, Staphylococcus aureus", "conditions": "20 μl of 1.25 mg/ml in 4% P80/Span 80 (1:1), calcium alginate swabs, dried overnight, duplicate", "procedure": "as §1, §2"}, "MSSA S815247": {"system": "MSSA S815247", "test": "Disk diffusion assay (zone of inhibition)", "type": "cell-based, Staphylococcus aureus", "conditions": "20 μl of 1.25 mg/ml in 4% P80/Span 80 (1:1), calcium alginate swabs, dried overnight, duplicate", "procedure": "as §1, §2"}, "MRSA U260847": {"system": "MRSA U260847", "test": "Disk diffusion assay (zone of inhibition)", "type": "cell-based, Staphylococcus aureus", "conditions": "20 μl of 1.25 mg/ml in 4% P80/Span 80 (1:1), calcium alginate swabs, dried overnight, duplicate", "procedure": "as §1, §2"}, "S. aureus isolates": {"system": "S. aureus isolates", "test": "Broth microdilution (BMD) MIC, panel of isolates", "type": "cell-based", "conditions": "Staphylococcus aureus, wild-type susceptibility to oritavancin", "source_text": "To date, only the broth microdilution (BMD) minimal inhibitory concentration (MIC) test is a reference method accepted by the Clinical Laboratory Standards Institute (CLSI) for use in determining the susceptibility of a bacterial isolate to oritavancin (Methods for Dilution Antimicrobial Susceptibility Tests for Bacteria That Grow Aerobically; Approved Standard, CLSI document M7-A8, 8th ed. Clinical and Laboratory Standards Institute, Wayne, Pa. 2009; Performance Standards for Antimicrobial Susceptibility Testing; Eighteenth Informational Supplement, CLSI document M100-S18, 7th ed. Clinical and Laboratory Standards Institute, Wayne, Pa. 2008)."}, "MRSA U206056": {"system": "MRSA U206056", "test": "Disk diffusion assay (zone of inhibition)", "type": "cell-based, Staphylococcus aureus", "conditions": "for zone of inhibition at 360 µg/disc: read-out: Zone diameter (mm ± SD)", "source_text": "(§3) The study was designed to identify conditions that improve oritavancin diffusion in agar and consequently yield a zone diameter ≧15 mm for the CLSI quality control strain MSSA ATCC 25923. Excipients that increased the disk diffusion of oritavancin in agar relative to disks containing only oritavancin were identified and selected for further study. […] A prediffusion step at room temperature was introduced to maximize oritavancin diffusion prior to initiation of bacterial growth. In this step, the antimicrobial disks were placed on agar plates seeded with a bacterial isolate and incubated at room temperature for 3 hours. Plates were then incubated overnight at 37° C. Zone diameters around the disks in which bacterial growth was inhibited were measured with a ruler and reported in millimeters.\n(§4) Ethanol-sterilized Whatman paper disks (6 mm diameter) were allowed to dry then impregnated with 20 microliters of oritavancin solution containing total amounts ranging from 90 to 360 micrograms. Disks were allowed to dry at room temperature for various times prior to use.\n(§5) Bacterial suspensions were prepared and adjusted to an optical density of 0.1 at 600 nm. Standard cation-adjusted Mueller Hinton agar plates (90 mm diameter) were seeded with bacterial suspensions by initially swabbing the center of plate then moving outward towards the edge. The plate was swabbed a second time, perpendicular to the orientation of the first swab. To assess the impact of prediffusion on diameter of inhibition zones, two disks were immediately placed on one half of the plate and the plate was incubated for 3 hours at room temperature. After 3 hours, two additional disks were placed on the other half of the plate then the plate was incubated overnight at 37° C. Zone diameters were measured with a ruler and reported in millimeters.\nas §1, §2"}, "hVISA NRS2": {"system": "hVISA NRS2", "test": "Disk diffusion assay (zone of inhibition)", "type": "cell-based, Staphylococcus aureus", "conditions": "NRS2", "source_text": "as §3, §4, §5, §1, §2"}, "[1]": {"conditions": "Staphylococcus aureus, MSSA, read-out: Inhibition zone diameter"}, "[2]": {"conditions": "Staphylococcus aureus, MRSA, read-out: Inhibition zone diameter"}}, "note": "Several values for one entry are separate records, joined by “and”; a condition that tells them apart may be missing. Equal values may be shown once. Read-outs that look alike come from different tables or passages of the source."}
{"smiles": "CN[C@H](CC(C)C)C(=O)N[C@H]1C(=O)N[C@@H](CC(N)=O)C(=O)N[C@H]2C(=O)N[C@H]3C(=O)N[C@H](C(=O)N[C@H](C(=O)O)c4cc(O)cc(O)c4-c4cc3ccc4O)[C@H](O[C@H]3C[C@](C)(N)[C@@H](O)[C@H](C)O3)c3ccc(c(Cl)c3)Oc3cc2cc(c3O[C@@H]2O[C@H](CO)[C@@H](O)[C@H](O)[C@H]2O[C@H]2C[C@](C)(NCc3ccc(-c4ccc(Cl)cc4)cc3)[C@@H](O)[C@H](C)O2)Oc2ccc(cc2Cl)[C@H]1O", "note": "[oritavancin, N-(4-(4-chlorophenyl)benzyl)A82846B]", "values": [{"measurement": "Inhibition zone diameter", "setting": "MSSA U933236", "result": 22, "unit": "mm"}, {"measurement": "zone of inhibition at 1250 µg/mL", "setting": "MSSA U933236; [1]", "result": 21, "unit": "mm"}, {"measurement": "Inhibition zone diameter", "setting": "MRSA Q670505", "result": "18, 18 mm"}, {"measurement": "zone of inhibition at 1250 µg/mL", "setting": "MRSA Q670505; [2]", "result": 18, "unit": "mm"}, {"measurement": "Inhibition zone diameter", "setting": "hVISA NRS36; NRS36", "result": 12, "unit": "mm"}, {"measurement": "zone of inhibition at 25 µg/disc", "setting": "hVISA NRS36; Staphylococcus aureus, NRS36, read-out: Inhibition zone diameter, NRS36", "result": 11, "unit": "mm"}, {"measurement": "Inhibition zone diameter", "setting": "MSSA T811355", "result": 22, "unit": "mm"}, {"measurement": "zone of inhibition at 1250 µg/mL", "setting": "MSSA T811355; [1]", "result": 21, "unit": "mm"}, {"measurement": "Inhibition zone diameter", "setting": "MRSA U933237", "result": 22, "unit": "mm"}, {"measurement": "zone of inhibition at 1250 µg/mL", "setting": "MRSA U933237; [2]", "result": 21, "unit": "mm"}, {"measurement": "Inhibition zone diameter", "setting": "MSSA U781969", "result": 23, "unit": "mm"}, {"measurement": "zone of inhibition at 1250 µg/mL", "setting": "MSSA U781969; [1]", "result": 22, "unit": "mm"}, {"measurement": "Inhibition zone diameter", "setting": "MRSA Q141067", "result": 22, "unit": "mm"}, {"measurement": "zone of inhibition at 1250 µg/mL", "setting": "MRSA Q141067; [2]", "result": 21, "unit": "mm"}, {"measurement": "Inhibition zone diameter", "setting": "MSSA S815247", "result": 21, "unit": "mm"}, {"measurement": "zone of inhibition at 1250 µg/mL", "setting": "MSSA S815247; [1]", "result": 20, "unit": "mm"}, {"measurement": "Inhibition zone diameter", "setting": "MRSA U260847", "result": 22, "unit": "mm"}, {"measurement": "zone of inhibition at 1250 µg/mL", "setting": "MRSA U260847; [2]", "result": 21, "unit": "mm"}, {"measurement": "MIC90", "setting": "S. aureus isolates", "result": 0.12, "unit": "µg/mL"}, {"measurement": "Inhibition zone diameter", "setting": "MRSA U206056; 25 μg (1.25 mg/ml) in 4% P80/Span 80 (1:1), dried overnight", "result": "17 mm and 18, 18 mm"}, {"measurement": "zone of inhibition at 25 µg/disc", "setting": "MRSA U206056; Staphylococcus aureus, MRSA, 25 μg (1.25 mg/ml) in 4% P80/Span 80 (1:1), dried overnight, read-out: Inhibition zone diameter", "result": 18, "unit": "mm"}, {"measurement": "zone of inhibition at 360 µg/disc", "setting": "MRSA U206056; Staphylococcus aureus, MRSA, 360 μg in 5% P80, Average of experiments, no prediffusion", "result": "15 ± 0.6", "unit": "mm"}, {"measurement": "zone of inhibition at 360 µg/disc", "setting": "MRSA U206056; Staphylococcus aureus, MRSA, 360 μg in 5% P80, Average of experiments, prediffusion", "result": "17.4 ± 0.5", "unit": "mm"}, {"measurement": "zone of inhibition at 360 µg/disc", "setting": "MRSA U206056; Staphylococcus aureus, MRSA, 360 μg in 5% P80, Experiment 1, disks stored 14 days, 3 h prediffusion at room temperature", "result": "17.8 ± 0.4", "unit": "mm"}, {"measurement": "zone of inhibition at 360 µg/disc", "setting": "MRSA U206056; Staphylococcus aureus, MRSA, 360 μg in 5% P80, Experiment 2, disks stored 8 days, 3 h prediffusion at room temperature", "result": 17, "unit": "mm"}, {"measurement": "zone of inhibition at 360 µg/disc", "setting": "MRSA U206056; Staphylococcus aureus, MRSA, 192 h, 360 μg in 5% P80, Experiment 2, disks stored 8 days, no prediffusion", "result": 14.5, "unit": "mm"}, {"measurement": "zone of inhibition at 360 µg/disc", "setting": "MRSA U206056; Staphylococcus aureus, MRSA, 336 h, 360 μg in 5% P80, Experiment 1, disks stored 14 days, no prediffusion", "result": 15.5, "unit": "mm"}, {"measurement": "Inhibition zone diameter", "setting": "hVISA NRS2; 25 μg (20 μl of 1.25 mg/ml) in 4% P80/Span 80 (1:1), calcium alginate swab, dried overnight", "result": "10 mm and 12, 12 mm"}, {"measurement": "zone of inhibition at 360 µg/disc", "setting": "hVISA NRS2; Staphylococcus aureus, NRS2, 3 h, 360 μg oritavancin, excipient 10% HPCD, disks made same day, 3 h prediffusion, average of 2 disks, read-out: Average zone diameter", "result": 17.5, "unit": "mm"}, {"measurement": "zone of inhibition at 90 µg/disc", "setting": "hVISA NRS2; Staphylococcus aureus, NRS2, 192 h, 90 μg oritavancin, 2.5% P80, disks stored 8 days, prediffusion, read-out: Average zone diameter", "result": 14, "unit": "mm"}, {"measurement": "zone of inhibition at 180 µg/disc", "setting": "hVISA NRS2; Staphylococcus aureus, NRS2, 192 h, 180 μg oritavancin, 2.5% P80, disks stored 8 days, prediffusion, read-out: Average zone diameter", "result": 14.8, "unit": "mm"}]}
